Measured values published in ChEMBL document CHEMBL5154879, “Induction of Genes Implicated in Stress Response and Autophagy by a Novel Quinolin-8-yl-nicotinamide QN523 in Pancreatic Cancer” (J Med Chem, 2022).
Calls of active or inactive are those of the source. The calls are words filed in the database; no cut-off is given here.

Assays:
MIA PaCa-2 [1] = experiment: Cytotoxicity against human MIA PaCa-2 cells assessed as inhibition of cell growth incubated for 72 hrs by MTT assay; type: functional, cell-based; conditions: MIA PaCa-2, 72 h
MIA PaCa-2 [2] = experiment: Upregulation of ER- related gene expression in human MIA PaCa-2 cells; type: functional, cell-based
[3] = Downregulation of NEURLIB gene expression in human MIA PaCa-2 cells assessed as fold change in NEURLIB expression at 1 uM incubated for 24 hrs by Bru-seq analysis relative to control; type: functional
SNU-387 = experiment: Antiproliferative activity against human SNU-387 cells assessed as inhibition of cell growth incubated for 72 hrs by MTT assay; type: functional, cell-based; conditions: SNU-387, 72 h
MIA PaCa-2 [4] = experiment: Upregulation of apoptosis transcription gene expression in human MIA PaCa-2 cells; type: functional, cell-based
[5] = Downregulation of SEMA4C gene expression in human MIA PaCa-2 cells assessed as fold change in SEMA4C expression at 1 uM incubated for 24 hrs by Bru-seq analysis relative to control; type: functional
[6] = Downregulation of TNFAIP8LI gene expression in human MIA PaCa-2 cells assessed as fold change in TNFAIP8LI expression at 1 uM incubated for 24 hrs by Bru-seq analysis relative to control; type: functional
[7] = Upregulation of HERPUD1 gene expression in human MIA PaCa-2 cells assessed as fold change in HERPUD1 expression at 1 uM incubated for 24 hrs by Bru-seq analysis relative to control; type: functional
[8] = Cytotoxicity against human HPDE cells assessed as inhibition of cell growth incubated for 72 hrs by MTT assay; type: toxicity, cell-based
[9] = Downregulation of ESPL1 gene expression in human MIA PaCa-2 cells assessed as fold change in ESPL1 expression at 1 uM incubated for 24 hrs by Bru-seq analysis relative to control; type: functional
MIA PaCa-2 [10] = experiment: Upregulation of CHOP gene expression in human MIA PaCa-2 cells incubated for 72 hrs by Western blot analysis; type: functional, cell-based; conditions: dose <= 600.0 µM, DDE = dose-dependent effect
[11] = Upregulation of UPP1 gene expression in human MIA PaCa-2 cells assessed as fold change in UPP1 expression at 1 uM incubated for 24 hrs by Bru-seq analysis relative to control; type: functional
MIA PaCa-2 [12] = experiment: Induction of cell cycle arrest in human MIA PaCa-2 cells assessed as accumulation of cells in G2/M phase at 0.1 uM incubated for 24 hrs by RNase/propidium iodide staining based flow cytometry analysis (reference value: 8.11%); type: functional
HCT-116 = experiment: Antiproliferative activity against human HCT-116 cells assessed as inhibition of cell growth incubated for 72 hrs by MTT assay; type: functional, cell-based; conditions: HCT-116, 72 h
[13] = Downregulation of TACC3 gene expression in human MIA PaCa-2 cells assessed as fold change in TACC3 expression at 1 uM incubated for 24 hrs by Bru-seq analysis relative to control; type: functional
[14] = Downregulation of ANKDDIA gene expression in human MIA PaCa-2 cells assessed as fold change in ANKDDIA expression at 1 uM incubated for 24 hrs by Bru-seq analysis relative to control; type: functional
MIA PaCa-2 [15] = experiment: Induction of cell cycle arrest in human MIA PaCa-2 cells assessed as accumulation of cells in G2/M phase at 0.5 uM incubated for 48 hrs by RNase/propidium iodide staining based flow cytometry analysis (reference value: 2.71%); type: functional
[16] = Downregulation of HMG20B gene expression in human MIA PaCa-2 cells assessed as fold change in HMG20B expression at 1 uM incubated for 24 hrs by Bru-seq analysis relative to control; type: functional
MIA PaCa-2 [17] = experiment: Induction of autophagy in human MIA PaCa-2 cells assessed as accumulation of WIP11 marker gene expression at upto 2 uM incubated for 72 hrs by Western blot analysis; type: functional, cell-based
[18] = Downregulation of FASN gene expression in human MIA PaCa-2 cells assessed as fold change in FASN expression at 1 uM incubated for 24 hrs by Bru-seq analysis relative to control; type: functional
SNU-398 = experiment: Antiproliferative activity against human SNU-398 cells assessed as inhibition of cell growth incubated for 72 hrs by MTT assay; type: functional, cell-based; conditions: SNU-398, 72 h
MIA PaCa-2 [19] = experiment: Upregulation of GDF15 gene expression in human MIA PaCa-2 cells incubated for 72 hrs by Western blot analysis; type: functional, cell-based; conditions: dose <= 600.0 µM, DDE = dose-dependent effect
MIA PaCa-2 [20] = experiment: Downregulation of cell cycle gene expression in human MIA PaCa-2 cells; type: functional, cell-based
MIA PaCa-2 [21] = experiment: Induction of apoptosis in human MIA PaCa-2 cells assessed as early apoptotic cells at 0.1 uM incubated for 48 hrs by Annexin V-FITC/PI staining based flow cytometry analysis (reference value: 1.8%); type: functional
OVCAR-8 = experiment: Antiproliferative activity against human OVCAR-8 cells assessed as inhibition of cell growth incubated for 72 hrs by MTT assay; type: functional, cell-based; conditions: OVCAR-8, 72 h
[22] = Downregulation of PLEKHG3 gene expression in human MIA PaCa-2 cells assessed as fold change in PLEKHG3 expression at 1 uM incubated for 24 hrs by Bru-seq analysis relative to control; type: functional
[23] = Upregulation of HMOX1 gene expression in human MIA PaCa-2 cells assessed as fold change in HMOX1 expression at 1 uM incubated for 24 hrs by Bru-seq analysis relative to control; type: functional
MIA PaCa-2 [24] = experiment: Induction of cell cycle arrest in human MIA PaCa-2 cells assessed as accumulation of cells in G0/G1 phase at 0.5 uM incubated for 48 hrs by RNase/propidium iodide staining based flow cytometry analysis (reference value: 70.4%); type: functional
MIA PaCa-2 [25] = experiment: Antitumour activity against of human MIA PaCa-2 xenografted in NOD/SCID mouse assessed as reduction in Ki67 expression in tumor by immunohistochemical assay; type: functional
SNU-475 = experiment: Antiproliferative activity against human SNU-475 cells assessed as inhibition of cell growth incubated for 72 hrs by MTT assay; type: functional, cell-based; conditions: SNU-475, 72 h
MIA PaCa-2 [26] = experiment: Induction of apoptosis in human MIA PaCa-2 cells assessed as late apoptotic cells at 0.5 uM incubated for 24 hrs by Annexin V-FITC/PI staining based flow cytometry analysis (reference value: 2.04%); type: functional
MIA PaCa-2 [27] = experiment: Upregulation of apoptotic gene expression in human MIA PaCa-2 cells by gene set enrichment analysis; type: functional, cell-based
MIA PaCa-2 [28] = experiment: Induction of cell cycle arrest in human MIA PaCa-2 cells assessed as accumulation of cells at S phase at 0.1 uM incubated for 24 hrs by RNase/propidium iodide staining based flow cytometry analysis (Rvb =27.6 %); type: functional
MIA PaCa-2 [29] = experiment: Induction of apoptosis in human MIA PaCa-2 cells assessed as viable cells at 0.5 uM incubated for 48 hrs by Annexin V-FITC/PI staining based flow cytometry analysis (reference value: 96.3%); type: functional; conditions: read-out: Activity
[30] = Upregulation of FAM129A gene expression in human MIA PaCa-2 cells assessed as fold change in FAM129A expression at 1 uM incubated for 24 hrs by Bru-seq analysis relative to control; type: functional

With O=C(Nc1cccc2cccnc12)c1cnccn1 the IC50 (MIA PaCa-2 [1]) was 110 nM, the Activity (MIA PaCa-2 [2]) was “Active” and the “fold change (FC)” value [3] was 0.44. For the same compound, the IC50 (SNU-387) was 5730 nM, the Activity (MIA PaCa-2 [4]) was “Active” and the “fold change (FC)” value [5] was 0.39. The “fold change (FC)” value [6] was 0.32, the “fold change (FC)” value [7] was 9.8 and the IC50 at 72 h [8] was 550 nM. The “fold change (FC)” value [9] was 0.4, the Activity (MIA PaCa-2 [10]) was “Dde” and the “fold change (FC)” value [11] was 18.2. The Activity (MIA PaCa-2 [12]) was 14.9%, the IC50 (HCT-116) was 100 nM and the “fold change (FC)” value [13] was 0.45. For the same compound, the “fold change (FC)” value [14] was 0.45, the Activity (MIA PaCa-2 [15]) was 11.5% and the “fold change (FC)” value [16] was 0.33. The Activity (MIA PaCa-2 [17]) was “Active”, the “fold change (FC)” value [18] was 0.41 and the IC50 (SNU-398) was 1900 nM. For the same compound, the Activity (MIA PaCa-2 [19]) was “Dde”, the Activity (MIA PaCa-2 [20]) was “Active” and the Activity (MIA PaCa-2 [21]) was 5.5%. The IC50 (OVCAR-8) was 300 nM, the “fold change (FC)” value [22] was 0.39 and the “fold change (FC)” value [23] was 13. The Activity (MIA PaCa-2 [24]) was 31.2%, the Activity (MIA PaCa-2 [25]) was “Active” and the IC50 (SNU-475) was 2670 nM. For the same compound, the Activity (MIA PaCa-2 [26]) was 2.1%, the Activity (MIA PaCa-2 [27]) was “Active” and the Activity (MIA PaCa-2 [28]) was 33.2%. For the same compound, the viability at 0.5 µM (MIA PaCa-2 [29]) was 95.3% and the “fold change (FC)” value [30] was 16.8.
